A short description of the experiment: Optical fiber-coupled TRAST curves of IR700 in tissue and PBS buffer solution, with and without ascorbic acid. The format is physicochemical. The following applies: IR700 in tissue or PBS buffer solution, FIG. 6B. The source says: FIG. 6A illustrates the presently disclosed embodiment of a system for PDT (611), wherein the system is arranged such that the same excitation-light-delivering fiber(s) also are arranged as detection fiber(s). The system may thus be arranged to carry out a method for PDT as disclosed elsewhere herein.
The system (611) typically comprises an intensity-modulated excitation light (605), e.g. from a laser (601) and an AOM (602). The excitation light (605) is applied, e.g. lensed by an objective (603), via a gradient-index multimode optical fiber (604), into a sample (609, tissue or water solution). […] The fluorescence plotted in the TRAST curves (612), corresponds to the (average) fluorescence from the PS compounds generated by the (modulated) excitation at the fiber end, which was collected (606) by the same fiber (604), passed through the fiber, through a dichroic mirror (607), and was then detected in a region-of-interest (ROI) within the field of detection of a camera (608). While only one fiber is shown in FIG. 6A, the system may comprise multiple fibers, into which excitation light from one or several lasers is introduced, and via which fluorescence detected from their fiber-ends is fed to different ROIs detected on the camera pixel array, and/or to a set of point detectors. […]

Regarding `C[Si](C)(CCC[N+](CCCS(=O)(=O)[O-])(CCCS(=O)(=O)[O-])CCCS(=O)(=O)[O-])O[Si]1(O[Si](C)(C)CCC[N+](CCCS(=O)(=O)[O-])(CCCS(=O)(=O)[O-])CCCS(=O)(=O)[O-])n2c3c4ccccc4c2N=C2N=C(N=c4c5ccccc5c(n41)=NC1=NC(=N3)c3ccccc31)c1cccc(OCCCOC(=O)NCCCCCC(=O)ON3C(=O)CCC3=O)c12.[Na+].[Na+].[Na+].[Na+]` (centres unmarked) [IR700, IRdye700DX], the “time range of the faster major relaxation in the TRAST curves, attributed to T1 build-up” value was “microsecond time range”. With `O=C1O[C@H]([C@@H](O)CO)C(O)=C1O` [ascorbic acid], the “time range of the prominent relaxation in the TRAST curves, attributed to build-up of a photo-reduced radical state population in IR700” value (after addition of ascorbic acid) is on record as about 0.1 ms.

The record behind these values is patent publication US20260102628A1, “METHOD AND APPARATUS FOR MONITORING OF PHOTODYNAMIC-THERAPY PRECURSOR STATES FOR ENHANCED THERAPEUTIC EFFICIENCY” (priority 2022, published 2026).
